For the assay, the system named is Acinetobacter baumannii ATCC17961. The experiment in a line: Antimicrobial susceptibility testing: 90% growth inhibitory concentration (IC90) determination, Iso-Sensitest broth. The format is cell-based. The note with it: Acinetobacter baumannii, ATCC17961, 16 h, read-out: ATCC17961 IC90. The essentials:
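Growth followed by optical density at 600 nm every 20 minutes for 16 h at 35±2° C, with inhibition assessed in log phase to give IC90. Compounds tested as twofold dilution series (e.g. 50 to 0.097 μM final) against 5×10^(5) CFU/ml in Iso-Sensitest medium.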

Where [1] appears, read: 90% growth inhibitory concentration, Acinetobacter baumannii ATCC17961, Iso-Sensitest broth, OD 600 nm over 16 h.

Structures can show the parent of a compound that is named as a salt. Where two headings read alike, the source gives them in different places.

In general, IC90 refers to the point of the concentration-response curve where the effect stands at 90%. In the case of `COc1ccc(-c2cnc3c(Nc4ccc(C(=O)N5CCN(C(=O)[C@@H]6C[C@@H](C#N)CN6)CC5)c(C)c4)nccn23)c(F)c1F` [Example 574, (3R,5S)-5-[4-[4-[[3-(2,3-difluoro-4-methoxyphenyl)imidazo[1,2-a]pyrazin-8-yl]amino]-2-methylbenzoyl]piperazine-1-carbonyl]pyrrolidine-3-carbonitrile;hydrochloride], under setting [1], the IC90 is 265 nM. On to `CCc1cc(Nc2nccn3c(-c4ccc(OC(F)F)c(F)c4F)cnc23)ccc1C(=O)N1CCN(C(=O)C2CCN(CC3CNC3)CC2)CC1` [Example 588, (1-(azetidin-3-ylmethyl)piperidin-4-yl)(4-(4-((3-(4-(difluoromethoxy)-2,3-difluorophenyl)imidazo[1,2-a]pyrazin-8-yl)amino)-2-ethylbenzoyl)piperazin-1-yl)methanone tris(2,2,2-trifluoroacetate)], for which the concentration for an effect of 90% (IC90) is 116 nM.

Consider `COc1ccc(-c2cnc3c(Nc4cc(C)c(C(=O)N5CCN(C(=O)[C@@H]6C[C@@H](O)CN6)CC5)c(F)c4)nccn23)c(F)c1F` [Example 243, (4-(4-((3-(2,3-difluoro-4-methoxyphenyl)imidazo[1,2-a]pyrazin-8-yl)amino)-2-fluoro-6-methylbenzoyl)piperazin-1-yl)((2S,4R)-4-hydroxypyrrolidin-2-yl)methanone dihydrochloride], for which the IC90 under setting [1] came out at 113 nM. The same measure, in the same setting: with `COc1ccc(-c2cnc3c(Nc4ccc(C(=O)N5CCN(C(=O)[C@@H]6NC[C@@H](O)[C@H]6O)CC5)c(C)c4)nccn23)c(F)c1F` [Example 235, (4-(4-((3-(2,3-difluoro-4-methoxyphenyl)imida-zo[1,2-a]pyrazin-8-yl)amino)-2-methylbenzoyl)piper-azin-1-yl)((2R,3S,4R)-3,4-dihydroxypyrrolidin-2-yl)methanone] the figure was 117 nM.

For `COc1ccc(-c2cnc3c(Nc4ccc(C(=O)N5CCN(C(=O)[C@@H]6C[C@H](C)CN6)CC5)c(C)c4)nccn23)c(F)c1F` [Example 282, [4-[[3-(2,3-difluoro-4-methoxyphenyl)imidazo[1,2-a]pyrazin-8-yl]amino]-2-methylphenyl]-[4-[(2S,4S)-4-methylpyrrolidine-2-carbonyl]piperazin-1-yl]methanone; hydrochloride], the IC90 was 72 nM. For `CC[C@]1(O)CN[C@H](C(=O)N2CCN(C(=O)c3ccc(Nc4nccn5c(-c6ccc(OC)c(F)c6)cnc45)cc3C)CC2)C1` [Example 464, [4-[(2S,4R)-4-ethyl-4-hydroxypyrrolidine-2-carbonyl]piperazin-1-yl]-[4-[[3-(3-fluoro-4-methoxyphenyl)imidazo[1,2-a]pyrazin-8-yl]amino]-2-methylphenyl]methanone; for-mic acid], the IC90 under setting [1] turned out to be 137 nM. On the same count and under the same terms, for `COc1ccc(-c2cnc3c(Nc4ccc(C(=O)N5CCC(C(=O)NCC(O)CN(C)C)CC5)c(C)c4)nccn23)c(F)c1F` (stereo not shown) [Example 89, 1-(4-((3-(2,3-difluoro-4-methoxyphenyl)imidazo[1,2-a]pyrazin-8-yl)amino)-2-methylbenzoyl)-N-(3-(dimethylamino)-2-hydroxypropyl)piperidine-4-carboxamide] the value was 72 nM.

`COc1ccc(-c2cnc3c(Nc4ccc(C(=O)N5CCN(C(=O)[C@@H]6C[C@@H](CO)CN6)CC5)c(C)c4)nccn23)c(F)c1F` [Example 284, [4-[[3-(2,3-difluoro-4-methoxyphenyl)imidazo[1,2-a]pyrazin-8-yl]amino]-2-methylphenyl]-[4-[(2S,4R)-4-(hydroxymethyl)pyrrolidine-2-carbonyl]piperazin-1-yl]methanone; hydrochloride]: the IC90 is 49 nM. With `Cc1cc(Nc2nccn3c(-c4ccc(OCC#N)c(F)c4Cl)cnc23)ccc1C(=O)N1CCN(C(=O)N[C@@H](C)CN)CC1` [Example 162, N-[(1S)-2-amino-1-methyl-ethyl]-4-[4-[[3-[2-chloro-4-(cyanomethoxy)-3-fluoro-phenyl]imidazo[1,2-a]pyrazin-8-yl]amino]-2-methyl-benzoyl]piperazine-1-carboxamide formate], the IC90 under setting [1] came out at 46 nM. Same read-out and setting: for `Cc1cc(Nc2nccn3c(-c4ccc(OCC#N)c(F)c4F)cnc23)ccc1C(=O)N1CCN(C(=O)C2CCNCC2)CC1` [Example 197, 2-[2,3-difluoro-4-[8-[3-methyl-4-[4-(piperidine-4-carbonyl)piperazine-1-carbonyl]anilino]imidazo [1,2-a]pyrazin-3-yl]phenoxy] acetonitrile formate] the value was 52 nM.

As to `CCc1cc(Nc2nccn3c(-c4ccc(OC)c(F)c4F)cnc23)ccc1C(=O)N1CC(OCCN)C1` [Example 585, (3-(2-aminoethoxy)azetidin-1-yl)(4-((3-(2,3-difluoro-4-methoxyphenyl)imidazo[1,2-a]pyrazin-8-yl)amino)-2-ethylphenyl)methanone formate], the IC90 was 94 nM. Consider `COc1ccc(-c2cnc3c(Nc4ccc(C(=O)N5CCN(C(=O)[C@H](CCCNC(=N)N)NC(=O)[C@@H](N)CCC(=O)O)CC5)c(C)c4)nccn23)c(F)c1F` [Example 555, (S)-4-amino-5-(((S)-1-(4-(4-((3-(2,3-difluoro-4-methoxyphenyl)imidazo[1,2-a]pyrazin-8-yl)amino)-2-methylbenzoyl)piperazin-1-yl)-5-guanidino-1-oxopentan-2-yl)amino)-5-oxopentanoic acid trihydrochloride], for which the IC90 under setting [1] is 704 nM. The same measure, in the same setting: with `Cc1cc(Nc2nccn3c(-c4ccc(OCC#N)c(F)c4Cl)cnc23)ccc1C(=O)N1CCN(C(=O)[C@@H]2C[C@@H](O)CN2)CC1` [Example 211, 2-[3-chloro-2-fluoro-4-[8-[4-[4-[(2S,4R)-4-hydroxypyrrolidine-2-carbonyl]piperazine-1-carbonyl]-3-methyl-anilino]imidazo[1,2-a]pyrazin-3-yl]phenoxy] acetonitrile formate] the figure was 42 nM.

With `Cc1cc(Nc2nccn3c(-c4ccc(OCC#N)c(Cl)c4F)cnc23)ccc1C(=O)N1CCN(C(=O)[C@@H]2C[C@@H](O)CN2)CC1` [Example 283, 2-[2-chloro-3-fluoro-4-[8-[4-[4-[(2S,4R)-4-hydroxypyrrolidine-2-carbonyl]piperazine-1-carbonyl]-3-methylanilino]imidazo[1,2-a]pyrazin-3-yl]phenoxy]acetonitrile], the IC90 under setting [1] came out at 51 nM. For the molecule `COc1ccc(-c2cnc3c(Nc4ccc(C(=O)N5CCN(C(=O)[C@]6(O)C[C@@H](O)[C@@H](O)[C@H](O)C6)CC5)c(C)c4)nccn23)c(F)c1F` [Example 295, [4-[[3-(2,3-difluoro-4-methoxyphenyl)imidazo[1,2-a]pyrazin-8-yl]amino]-2-methylphenyl]-[4-[(3R,5R)-1,3,4,5-tetrahydroxycyclohexanecar-bonyl]piperazin-1-yl]methanone], under setting [1], the IC90 amounted to 171 nM. For the molecule `COc1cc(Nc2nccn3c(-c4ccc(OC)c(F)c4F)cnc23)ccc1C(=O)N1CCN(C(=O)[C@H]2C[C@H](O)CN2)CC1` (stereo in doubt) [Example 586, (4-(4-((3-(2,3-difluoro-4-methoxyphenyl)imidazo[1,2-a]pyrazin-8-yl)amino)-2-methoxybenzoyl)piperazin-1-yl)((2R,4S)-4-hydroxypyrrolidin-2-yl)methanone formate], the IC90 was 312 nM. With `COc1ccc(-c2cnc3c(Nc4ccc(C(=O)N5CCN(S(=O)(=O)[C@@H]6CCNC6)CC5)c(C)c4)nccn23)c(F)c1F` [Example 579, (R)-(4-((3-(2,3-difluoro-4-methoxyphenyl)imidazo[1,2-a]pyrazin-8-yl)amino)-2-methylphenyl)(4-(pyrrolidin-3-ylsulfonyl)piperazin-1-yl)methanone], under setting [1], the IC90 was 258 nM.

Take `COc1ccc(-c2cnc3c(Nc4ccc(C(=O)N5CCN(C(=O)[C@H]6NCC[C@H]6O)CC5)c(C)c4)nccn23)c(F)c1F` [Example 78, (4-(4-((3-(2,3-difluoro-4-methoxyphenyl)imidazo[1,2-a]pyrazin-8-yl)amino)-2-methylbenzoyl)piperazin-1-yl)((2S,3R)-3-hydroxypyrrolidin-2-yl)methanone hydrochloride]: the 90% effect concentration (IC90) stood at 87 nM. On the same count and under the same terms, for `COc1ccc(-c2cnc3c(Nc4ccc(C(=O)N5CCN(C(=O)CC[C@H](NC(=O)[C@@H](N)CCCCN)C(=O)O)CC5)c(C)c4)nccn23)c(F)c1F` [Example 531, (2S)-2-[[(2S)-2,6-diaminohexanoyl]amino]-5-[4-[4-[[3-(2,3-difluoro-4-methoxyphenyl)imidazo[1,2-a]pyrazin-8-yl]amino]-2-methylbenzoyl]piperazin-1-yl]-5-oxopentanoic acid; hydrochloride] the value was 686 nM.

Take `COc1ccc(-c2cnc3c(Nc4ccc(C(=O)N5CCN(C(=O)C6(C)CCCN6)CC5)c(C)c4)nccn23)c(F)c1F` (stereo not shown) [Example 80, (4-(4-((3-(2,3-difluoro-4-methoxyphenyl)imidazo[1,2-a]pyrazin-8-yl)amino)-2-methylbenzoyl)piperazin-1-yl)(2-methylpyrrolidin-2-yl)methanone hydrochloride]: the IC90 under setting [1] worked out at 81 nM.

In the case of `COc1ccc(-c2cnc3c(Nc4ccc(C(=O)N5CCN(C(=O)[C@@H]6C[C@@H](O)CN6)CC5)c(C)c4)nccn23)c(F)c1Cl` [Example 93, (4-(4-((3-(3-chloro-2-fluoro-4-methoxyphenyl)imidazo[1,2-a]pyrazin-8-yl)amino)-2-methylbenzoyl)piperazin-1-yl)((2S,4R)-4-hydroxypyrrolidin-2-yl)methanone hydrochloride], under setting [1], the IC90 came to 84 nM.

In the case of `COc1ccc(-c2cnc3c(Nc4ccc(C(=O)N5CCC(C(=O)NCC(O)Cn6cccn6)CC5)c(C)c4)nccn23)c(F)c1F` (stereo not shown) [Example 570, 1-(4-((3-(2,3-difluoro-4-methoxyphenyl)imidazo[1,2-a]pyrazin-8-yl)amino)-2-methylbenzoyl)-N-(2-hydroxy-3-(1H-pyrazol-1-yl)propyl)piperidine-4-carboxamide], the IC90 under setting [1] is 245 nM.

These data come from patent US20230011869A1 (Hoffmann-La Roche Inc., priority 2018, published 2023).
